Patent publication US20120149902A1, “PYRROLO[2,3-D]PYRIMIDINE DERIVATIVE” (UBE INDUSTRIES, LTD., priority 2009, published 2012)

How the values were obtained:
[1] = target: T1, purified human recombinant HER2 kinase (Lys676-Val1255, GST fusion) (Homo sapiens, UniProt P04626); test: HER2 kinase enzyme inhibitory activity (HTRF); type: biochemical; details: 200 μM ATP, FLT3 analogous peptide substrate, 60 minutes at room temperature
T1 construct: human recombinant HER2 kinase (Lys676-Val1255, GST fusion); GST
Description: The HER2 kinase enzyme inhibitory activity of a compound of the present invention was evaluated by using a purified human recombinant HER2 kinase (Lys676-Val1255, GST fusion) and a synthetic peptide as a substrate, and detecting the phosphorylation level of the substrate by the HTRF method (homogeneous time resolved fluorescence method). Specifically, 25 ng/well of activated HER2, 200 μM of ATP, 200 ng/well of FLT3 analogous peptide (biotin label, peptide sequence is AGGSSDNEYFYVDF), and test compound (final concentration 0.01 nM to 30 μM) were mixed in kinase reaction buffer (60 mM HEPES, 5 mM MgCl2, 5 mM MnCl2, 3 mM Na3VO4, 1.25 mM DTT, pH 7.5) to prepare 50 μL/well of total reaction volume, and the mixture was reacted for 60 minutes at room temperature. Then, the phosphorylation reaction was stopped and HTRF reaction was carried out by adding 25 μL/well of PBS solution comprising the following components and reacting the mixture for 12 to 16 hours at 4° C. The following components were dissolved in PBS (pH 7.0) to prepare the PBS solution composition: 60 mM EDTA (final concentration 20 mM), 1.2 M KF (final concentration […]), 1 mg/mL BSA (final concentration 333 μg/mL), 6 μg/mL anti-PY20-Cryptate (Cisbio international, France, final concentration 2 μg/mL), and 15 μg/mL Streptavidin labeled with XL665 (Cisbio international, France, final concentration 5 μg/mL).

[2] = tested on: HER2 overexpressed gastric cancer cell line NCI-N87; test: Cytotoxic activity (in vitro), CellTiter-Glo viable cell count; type: cell-based; details: Homo sapiens, NCI-N87, 72 h, NCI-N87, cultured for 72 hours
Description: The cytotoxic activity of a compound of the present invention was investigated using a HER2 overexpressed gastric cancer cell line NCI-N87. Specifically, an appropriate amount of cells was seeded into a 96-well plate for cell culture at 50 μL/well, and precultured overnight at 37° C. under 5% —CO2 condition. A solution of a test compound in DMSO with dilution series was diluted with medium, and added to the precultured cells at the volume of 50 μL/well. The mixture was prepared such that the final concentration of DMSO became 0.1%. After the mixture was cultured for 72 hours at 37° C. under 5% —CO2 condition, 100 μL/well of CellTiter-Glo solution (Promega, Madison, Wis.) was added, the luminescence was measured using a luminometer (Wallac ARVO™ SX) 10 minutes later, and the viable cell count was determined.

[3] = tested on: HER2 overexpressed gastric cancer cell line; test: In vivo anti-tumor effect, subcutaneous tumor transplant in nude mouse; details: oral, daily except Saturday and Sunday, 2 to 4 weeks, read-out: Tumor growth inhibition ratio (%); for inhibition in vivo at 100 mg/kg: dosage 100 mg/kg; for inhibition in vivo at 30 mg/kg: dosage 30 mg/kg; for inhibition in vivo at 60 mg/kg: dosage 60 mg/kg
Description: The anti-tumor effect in vivo of a compound of the present invention was evaluated using a HER2 overexpressed gastric cancer cell line. Specifically, a tumor fragment with about 5 mm square was transplanted subcutaneously using a transplantation needle, or an appropriate number of tumor cells was suspended in saline (Otsuka Pharmaceutical Co., Ltd.) and transplanted under the skin of the right axillary region of a nude mouse using a glass syringe equipped with a two-stage needle for subcutaneous injection. After the confirmation of the engraftment of the transplanted tumors, the mice were classified into groups depending on the tumor volume. The test compounds: the Example Compounds 1-1, 1-2, 1-5, 1-8, 1-13, 1-14, 1-15, 1-19, 1-20, 1-22, 2-1, 2-3, and 3-2 were each dissolved or suspended in an appropriate medium and orally administered forcedly to a mouse. The period of administration was varied from 2 weeks to 4 weeks depending on tumor, and the administration was carried out daily with drug holidays of Saturday and Sunday. The major axis (mm) and the minor axis (mm) of a tumor were measured sequentially using an electronic digital vernier caliper, and evaluated by the tumor growth inhibition ratio (GI %) on the judgement day (in principle, the next day of the final administration) using the following calculating formula.
A: Average tumor volume on the judgement day of the group to which a compound was administered (*)
B: Average tumor volume on the judgement day of the untreated control group (*)
*: The tumor volume is calculated by ½×[major axis of tumor]×[minor axis of tumor]^2.

T1 sequence (P04626 676-1255): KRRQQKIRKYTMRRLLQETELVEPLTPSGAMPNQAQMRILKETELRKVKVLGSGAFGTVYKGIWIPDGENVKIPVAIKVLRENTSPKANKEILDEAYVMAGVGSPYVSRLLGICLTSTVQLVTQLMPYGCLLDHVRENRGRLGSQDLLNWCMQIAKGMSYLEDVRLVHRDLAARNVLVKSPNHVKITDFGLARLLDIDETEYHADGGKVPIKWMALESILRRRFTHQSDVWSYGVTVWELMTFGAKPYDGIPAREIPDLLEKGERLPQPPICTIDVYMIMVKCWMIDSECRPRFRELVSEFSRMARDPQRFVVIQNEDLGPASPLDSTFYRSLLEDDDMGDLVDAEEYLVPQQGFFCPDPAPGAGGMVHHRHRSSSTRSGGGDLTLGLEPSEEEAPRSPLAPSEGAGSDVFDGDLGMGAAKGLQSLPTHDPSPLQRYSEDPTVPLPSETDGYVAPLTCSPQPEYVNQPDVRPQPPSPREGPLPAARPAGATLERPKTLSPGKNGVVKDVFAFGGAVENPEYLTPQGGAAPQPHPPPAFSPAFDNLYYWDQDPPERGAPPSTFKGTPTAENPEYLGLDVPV

Row | IC50 [1] [nM] | Compound | GI50 [2] [nM] | further results
1 | < 10 | CNC1CCN(Cc2c[nH]c3ncnc(Nc4cccc(Br)c4)c23)CC1 [Example 1-18] | < 20 | –
2 | 10 to 50 | C#Cc1cccc(Nc2ncnc3[nH]cc(CN4CCC(C)(N)CC4)c23)c1 [Example 1-14, [5-(4-Amino-4-methylpiperidin-1-ylmethyl)-7H-pyrrolo[2,3-d]pyrimidin-4-yl](3-ethynylphenyl)amine] | – | inhibition in vivo at 10 mg/kg ([3]; dosage 10 mg/kg): 75%
3 | ≥ 100 | COc1ccc(Nc2ncnc3[nH]cc(CN4CCC(N)CC4)c23)cc1 [Example 1-19, [5-(4-Aminopiperidin-1-ylmethyl)-7H-pyrrolo[2,3-d]pyrimidin-4-yl](4-methoxyphenyl)amine] | 50 to 500 | inhibition in vivo at 100 mg/kg [3]: 44%
4 | < 10 | NC1CCN(Cc2c[nH]c3ncnc(Nc4ccc(Cl)c(Cl)c4)c23)CC1 [Example 1-10, [5-(4-Aminopiperidin-1-ylmethyl)-7H-pyrrolo[2,3-d]pyrimidin-4-yl](3,4-dichlorophenyl)amine] | 20 to 50 | –
5 | 10 to 50 | NC1CCN(Cc2c[nH]c3ncnc(Nc4ccc5[nH]ncc5c4)c23)CC1 [Example 1-9, [5-(4-Aminopiperidin-1-ylmethyl)-7H-pyrrolo[2,3-d]pyrimidin-4-yl](1H-indazol-5-yl)amine] | 50 to 500 | –
6 | < 10 | COCC1(N)CCN(Cc2c[nH]c3ncnc(Nc4cccc(Br)c4)c23)CC1 [Example 1-16, [5-(4-Amino-4-methoxymethylpiperidin-1-ylmethyl)-7H-pyrrolo[2,3-d]pyrimidin-4-yl](3-bromophenyl)amine] | < 20 | –
7 | < 10 | CC1(N)CCN(Cc2c[nH]c3ncnc(Nc4cccc(Br)c4)c23)CC1 [Example 1-12, [5-(4-Amino-4-methylpiperidin-1-ylmethyl)-7H-pyrrolo[2,3-d]pyrimidin-4-yl](3-bromophenyl)amine] | – | –
8 | 10 to 50 | NC1CCN(Cc2c[nH]c3ncnc(Nc4cc(F)cc(Br)c4)c23)CC1 [Example 1-11, [5-(4-Aminopiperidin-1-ylmethyl)-7H-pyrrolo[2,3-d]pyrimidin-4-yl](3-bromo-5-fluorophenyl)amine] | 20 to 50 | –
9 | < 10 | NC1CCN(Cc2c[nH]c3ncnc(Nc4cccc(Br)c4)c23)CC1 [Example 1-8, [5-(4-Aminopiperidin-1-ylmethyl)-7H-pyrrolo[2,3-d]pyrimidin-4-yl](3-bromophenyl)amine] | < 20 | inhibition in vivo at 30 mg/kg [3]: 59%
10 | < 10 | COc1cccc(Nc2ncnc3[nH]cc(CN4CCC(C)(N)CC4)c23)c1 [Example 1-13, [5-(4-Amino-4-methylpiperidin-1-ylmethyl)-7H-pyrrolo[2,3-d]pyrimidin-4-yl](3-methoxyphenyl)amine] | – | inhibition in vivo at 30 mg/kg [3]: 72%
11 | – | C#Cc1cccc(Nc2ncnc3[nH]cc(CN4CCC(N)CC4)c23)c1 [Example 1-5, [5-(4-Aminopiperidin-1-ylmethyl)-7H-pyrrolo[2,3-d]pyrimidin-4-yl](3-ethynylphenyl)amine] | – | inhibition in vivo at 30 mg/kg [3]: 90%
12 | – | N[C@@H]1CCN(Cc2c[nH]c3ncnc(Nc4ccc(F)c(Cl)c4)c23)C[C@H]1O (relative stereo) [Example 2-1, trans-4-Amino-1-[4-(3-chloro-4-fluorophenylamino)-7H-pyrrolo[2,3-d]pyrimidin-5-ylmethyl]piperidin-3-ol] | 20 to 50 | inhibition in vivo at 100 mg/kg [3]: 52%
13 | – | N[C@@H]1CCN(Cc2c[nH]c3ncnc(Nc4ccc5occc5c4)c23)C[C@H]1O (relative stereo) [Example 2-2, trans-4-Amino-1-[4-(benzofuran-5-ylamino)-7H-pyrrolo[2,3-d]pyrimidin-5-ylmethyl]piperidin-3-ol] | 20 to 50 | –
14 | 10 to 50 | NC1CCN(Cc2c[nH]c3ncnc(Nc4cc(F)c(F)c(F)c4)c23)CC1 [Example 1-7, [5-(4-Aminopiperidin-1-ylmethyl)-7H-pyrrolo[2,3-d]pyrimidin-4-yl](3,4,5-trifluorophenyl)amine] | < 20 | –
15 | 50 to 100 | COCC1(N)CCN(Cc2c[nH]c3ncnc(Nc4ccc5occc5c4)c23)CC1 [Example 1-17, [5-(4-Amino-4-methoxymethylpiperidin-1-ylmethyl)-7H-pyrrolo[2,3-d]pyrimidin-4-yl](benzofuran-5-yl)amine] | 20 to 50 | –
16 | 10 to 50 | CC1(N)CCN(Cc2c[nH]c3ncnc(Nc4ccc5occc5c4)c23)CC1 [Example 1-15, [5-(4-Amino-4-methylpiperidin-1-ylmethyl)-7H-pyrrolo[2,3-d]pyrimidin-4-yl](benzofuran-5-yl)amine] | 20 to 50 | inhibition in vivo at 60 mg/kg [3]: 90%
17 | – | N[C@@H]1CCN(Cc2c[nH]c3ncnc(Nc4cccc(Br)c4)c23)C[C@H]1O (relative stereo) [Example 2-3, trans-4-Amino-1-[4-(3-bromophenylamino)-7H-pyrrolo[2,3-d]pyrimidin-5-ylmethyl]piperidin-3-ol] | < 20 | inhibition in vivo at 100 mg/kg [3]: 76%
18 | – | NC1CCN(Cc2c[nH]c3ncnc(Nc4ccc(F)c(Cl)c4)c23)CC1 [Example 1-2, [5-(4-Aminopiperidin-1-ylmethyl)-7H-pyrrolo[2,3-d]pyrimidin-4-yl](3-chloro-4-fluorophenyl)amine] | 20 to 50 | inhibition in vivo at 30 mg/kg [3]: 75%
19 | 50 to 100 | C[C@@H]1CN(Cc2c[nH]c3ncnc(Nc4ccc(Cl)cc4)c23)CC[C@H]1N (relative stereo) [Example 1-21, trans-[5-(4-Amino-3-methylpiperidin-1-ylmethyl)-7H-pyrrolo[2,3-d]pyrimidin-4-yl](4-chlorophenyl)amine] | 20 to 50 | –
20 | 50 to 100 | CC1CN(Cc2c[nH]c3ncnc(Nc4ccc(Cl)cc4)c23)CCC1N (single isomer, unassigned; enantiomer 1) [Example 1-22, trans-[5-(4-Amino-3-methylpiperidin-1-ylmethyl)-7H-pyrrolo[2,3-d]pyrimidin-4-yl](4-chlorophenyl)amine [Enantiomer 1]] | – | inhibition in vivo at 60 mg/kg [3]: 88%
21 | ≥ 100 | CC1CN(Cc2c[nH]c3ncnc(Nc4ccc(Cl)cc4)c23)CCC1N (single isomer, unassigned; enantiomer 2) [Example 1-23, trans-[5-(4-Amino-3-methylpiperidin-1-ylmethyl)-7H-pyrrolo[2,3-d]pyrimidin-4-yl](4-chlorophenyl)amine [Enantiomer 2]] | – | –
22 | < 10 | C#Cc1cccc(Nc2ncnc3[nH]cc(CN4CCC(NC)CC4)c23)c1 [Example 3-1, (3-Ethynylphenyl)[5-(4-methylaminopiperidin-1-ylmethyl)-7H-pyrrolo[2,3-d]pyrimidin-4-yl]amine] | < 20 | –
23 | < 10 | Cc1ccc(Nc2ncnc3[nH]cc(CN4CCC(N)CC4)c23)cc1Br [Example 1-6, [5-(4-Aminopiperidin-1-ylmethyl)-7H-pyrrolo[2,3-d]pyrimidin-4-yl](3-bromo-4-methylphenyl)amine] | 20 to 50 | –
24 | – | NC1CCN(Cc2c[nH]c3ncnc(Nc4ccc5occc5c4)c23)CC1 [Example 1-1, [5-(4-Aminopiperidin-1-ylmethyl)-7H-pyrrolo[2,3-d]pyrimidin-4-yl]benzofuran-5-ylamine] | 20 to 50 | inhibition in vivo at 60 mg/kg [3]: 84%
